Experimental data as given in patent publication EP4818330A1, “PHARMACEUTICAL PREPARATION FOR DIAGNOSING AND TREATING ALZHEIMER'S DISEASE” (Shanghai East Hospital Tongji University, priority 2023, dated 2025).
Values joined by “and” are separate entries in the source; they are usually repeats but may differ in a detail not shown here. Equal values may be shown once. Read-outs that look alike come from different tables or passages of the source.

What was measured:
[1] = Blood drug concentration in mice after single intraperitoneal administration; format: in vivo, Balb/c strain mice
Procedure: Compound preparation: A compound of Formula I was commercially available, which was dissolved and diluted with a solution comprising 10% DMSO+90% (20% HP-β-CD).
(§1) Research method: first, Balb/c strain mice were administered with a single intraperitoneal injection at a concentration of 2.5 mg/kg, and the content of the compound in serum was detected at 0.25, 0.5, 1, 2, 4, 6, 8 and 24 h after injection; second, brain tissues of mice at 0.5, 4 and 24 h after injection were collected to detect the compound content, so as to evaluate the blood-brain barrier penetration rate.

[2] = Drug content in brain tissue after single intraperitoneal administration; format: in vivo, Balb/c strain mice; settings: mice; for concentration at 0.5 h: brain, ip
Procedure: as §1

[3] = CCK8 cell viability (toxicity) assay in 293T cell line; format: cell-based; settings: human, 293T cells, 293T, 24 h, CCK8, three replicate wells
Text: (§2) The CCK8 cell viability assay (CCK8) was adopted. Its principle is mainly based on the reduction reaction of WST-8 (chemical name: 2-(2-methoxy-4-nitrophenyl)-3-(4-nitrophenyl)-5-(2,4-disulfophenyl)-2H-tetrazolium monosodium salt). In the presence of living cells, WST-8 can be reduced by dehydrogenases in mitochondria to generate a highly water-soluble orange-yellow formazan product. The color intensity is directly proportional to the number of living cells, wherein the quantity of living cells can be indirectly reflected by measuring the absorbance of formazan products (typically at a wavelength of 450 nm). The CCK-8 assay is widely used in cell proliferation assay, cytotoxicity assay and tumor drug sensitivity test.
(§3) In in vitro experiments, the compound stock solution was prepared into 10 mM with DMSO and diluted with a culture medium before use. The 293T cell line was used for preliminary concentration screening of the compound, wherein concentration gradients were set as follows: 5 µmol, 10 µmol, 20 µmol, 40 µmol, 80 µmol and 160 µmol. After the cells were treated with the compound for 24 h, the CCK8 detection kit was used, wherein the cell viability was calculated based on the absorbance values detected by a microplate reader. Data processing was performed using GraphPad Prism software to plot the IC50 curve.

293T cell line = assay: as above; format: cell-based; settings: 293T, 24 h, CCK8, three replicate wells
Text: as §2, §3

[4] = CCK8 cell viability (toxicity) assay in primary neurons; format: cell-based, mouse; settings: ICR, mouse, primary hippocampal neurons, 24 h, CCK8, three replicate wells
Text: as §2
Primary hippocampal neuron culture: After ICR fetal mice at 18-21 days of gestation (E18-E21) were anesthetized, the fetal mice were dissected in a clean area and immersed in 75% ethanol for 1-2 min. The mouse head was taken out, the surface skull was removed with micro-scissors, and the brain tissue was transferred to an anatomical dissociation solution. Under a microscope, blood vessels and meninges were removed, hippocampal tissue was isolated, the extracted hippocampal tissue was placed in a 3.5 cm dish containing the anatomical dissociation solution, and the hippocampal tissue was cut into small fragments using micro-scissors. The minced hippocampal tissue was transferred to a 7 ml EP tube using a pipette gun. The hippocampal tissue hereinabove was centrifuged at 1000 rpm for 3-5 min, and the anatomical separation solution was discarded. 0.5-1 ml of papain digestion solution was added to the EP tube hereinabove, and the EP tube was placed in a 37°C incubator for 30 min. 300 µL of Trituration buffer 300 (DNase) and 5 mL of complete medium were added, and the hippocampal tissue was gently pipetted more than 10 times. The cell suspension was allowed to stand for 3 min, and 3-4 ml of supernatant was gently aspirated into a 15 ml tube using a pipette. 3-4 ml of complete medium was added again, and the hippocampal tissue was gently pipetted more than 10 times. Step 8 was repeated, and 3-4 ml of supernatant was transferred to the same 15 ml tube again. The previous step was repeated again. The collected supernatant was centrifuged at 1000 rpm, the supernatant was discarded, and 5 ml of complete medium was added. The mixture was gently pipetted and suspended, and then centrifuged again at 1000 rpm for 5 min. The complete medium was added to resuspend the cells, and then a portion of the cells was aspirated for counting. Generally, when neuronal cells were planted in a 24-well plate, the concentration of the cell suspension was generally 2×10^5/ml, and 500 µl of cells is inoculated per well. The resuspended neuron cells with a diluted ratio were seeded onto a glass slide treated with PDL, then the glass slide was placed in a 37°C incubator for 10 min, an appropriate amount of complete medium was added, and then the culture is continued in the incubator.

APP/PS1 transgenic mice = assay: Dendritic spine density of hippocampal neurons in brain slices of AD mice; format: in vivo
Procedure: Thy1-GFP mice are commonly used in neuroscience research. The fluorescence labeling of GFP facilitates convenient observation and tracking of specific cell types, especially neurons. APP/PS1 transgenic mice (an animal model of Alzheimer's disease) were crossed with Thy1-GFP mice. The crossed mice aged 5 months were intraperitoneally injected with a compound solution at a concentration of 2.5 mg/kg for 1 month continuously. Subsequently, the crossed mice aged 6 months were subjected to behavioral test (Morris water maze MWM experiment) to evaluate learning and memory abilities (as shown in FIG. 22).
After the water maze behavioral test, the mice were anesthetized and perfused, and then brain tissue sections were taken. The density of neuronal dendritic spines was observed under a confocal fluorescence microscope using GFP green fluorescence.

[5] = IP 2.5 mg/kg, 0.5 hr, individual animals, 2.5 mg/kg
[6] = IP 2.5 mg/kg, 24 hr, individual animals
[7] = IP 2.5 mg/kg, 24 hr, mean of 3 animals

With CCOC(=O)c1[nH]c(C)c(CCC(=O)N2CCCC(C(=O)NCCN3CCCCCC3)C2)c1C (stereo not shown) [compound of Formula I, ETHYL4-[3-(3-{[2-(AZEPAN-1-YL)ETHYL]CARBAMOYL}PIPERIDIN-1-YL)-3-OXOPROPYL]-3, 5-DIMETHYL-1H-PYRROLE-2-CARBOXYLATE] the concentration at 0.25 h ([1]; Balb/c, mouse, serum, ip, 2.5 mg/kg, IP 2.5 mg/kg, 0.25 hr, individual animals, read-out: Concentration (blood)) was 369 ng/mL, the concentration at 0.25 h ([1]; Balb/c, mouse, serum, ip, 2.5 mg/kg, IP 2.5 mg/kg, 0.25 hr, mean of 3 animals, read-out: Concentration (blood) Mean) was 423 ng/mL and the concentration at 0.5 h ([1]; Balb/c, mouse, serum, ip, 2.5 mg/kg, IP 2.5 mg/kg, 0.5 hr, individual animals, read-out: Concentration (blood)) was 364 ng/mL. It also gave a concentration at 0.5 h ([1]; Balb/c, mouse, serum, ip, 2.5 mg/kg, IP 2.5 mg/kg, 0.5 hr, mean of 3 animals, read-out: Concentration (blood) Mean) of 374 ng/mL, a concentration at 1 h ([1]; Balb/c, mouse, serum, ip, 2.5 mg/kg, IP 2.5 mg/kg, 1 hr, mean of 3 animals) of 145 ng/mL and a concentration at 2 h ([1]; Balb/c, mouse, serum, ip, 2.5 mg/kg, IP 2.5 mg/kg, 2 hr, mean of 3 animals) of 36.1 ng/mL. The concentration at 4 h ([1]; Balb/c, mouse, serum, ip, 2.5 mg/kg, IP 2.5 mg/kg, 4 hr, mean of 3 animals) was 5.14 ng/mL, the “Concentration (blood)” value ([1]; IP 2.5 mg/kg, 0.25 hr, individual animals, 2.5 mg/kg) was 350 ng/mL and 551 ng/mL and the “Concentration (blood)” value [1, 5] was 328 ng/mL and 431 ng/mL. For the same compound, the “Concentration (blood)” value ([1]; IP 2.5 mg/kg, 1 hr, individual animals, 2.5 mg/kg) was 118 ng/mL and 217 ng/mL and 99.3 ng/mL, the “Concentration (blood)” value ([1]; IP 2.5 mg/kg, 2 hr, individual animals, 2.5 mg/kg) was 22.7 ng/mL and 63.7 ng/mL and 22.0 ng/mL and the “Concentration (blood)” value ([1]; IP 2.5 mg/kg, 4 hr, individual animals, 2.5 mg/kg) was 3.63 ng/mL and 8.64 ng/mL and 3.15 ng/mL. For the same compound, the “Concentration (blood)” value ([1]; IP 2.5 mg/kg, 6 hr, individual animals) was “BLOQ (BLOQ = Below LOQ, LOQ = 2.0 ng/mL)”, the “Concentration (blood) Mean” value ([1]; IP 2.5 mg/kg, 6 hr, mean of 3 animals) was “BLOQ (BLOQ = Below LOQ, LOQ = 2.0 ng/mL)” and the “Concentration (blood)” value ([1]; IP 2.5 mg/kg, 8 hr, individual animals) was “BLOQ (BLOQ = Below LOQ, LOQ = 2.0 ng/mL)”. For the same compound, the “Concentration (blood) Mean” value ([1]; IP 2.5 mg/kg, 8 hr, mean of 3 animals) was “BLOQ (BLOQ = Below LOQ, LOQ = 2.0 ng/mL)”, the “Concentration (blood)” value [1, 6] was “BLOQ (BLOQ = Below LOQ, LOQ = 2.0 ng/mL)” and the “Concentration (blood) Mean” value [1, 7] was “BLOQ (BLOQ = Below LOQ, LOQ = 2.0 ng/mL)”. For the same compound, the “blood concentration of the compound” value ([1]; single IP injection 2.5 mg/kg, after 6 h) was “undetectable”, the concentration at 0.5 h ([2]; Balb/c, mouse, 2.5 mg/kg, IP 2.5 mg/kg, 0.5 hr, individual animals, read-out: Concentration (brain tissue)) was 16.8 ng/mL and the concentration at 0.5 h ([2]; Balb/c, mouse, 2.5 mg/kg, IP 2.5 mg/kg, 0.5 hr, mean of 3 animals, read-out: Concentration (brain tissue) Mean) was 13.8 ng/mL. The Kp at 0.5 h ([2]; Balb/c, mouse, IP 2.5 mg/kg, 0.5 hr, brain tissue vs blood) was 0.037, the “Concentration (brain tissue)” value [2, 5] was 10.3 ng/mL and 14.4 ng/mL and the “Concentration (brain tissue)” value ([2]; IP 2.5 mg/kg, 4 hr, individual animals) was “BLOQ (BLOQ = Below LOQ, LOQ = 2.0 ng/mL)”. For the same compound, the “Concentration (brain tissue) Mean” value ([2]; IP 2.5 mg/kg, 4 hr, mean of 3 animals) was “BLOQ (BLOQ = Below LOQ, LOQ = 2.0 ng/mL)”, the “Concentration (brain tissue)” value [2, 6] was “BLOQ (BLOQ = Below LOQ, LOQ = 2.0 ng/mL)” and the “Concentration (brain tissue) Mean” value [2, 7] was “BLOQ (BLOQ = Below LOQ, LOQ = 2.0 ng/mL)”. For the same compound, the blood-brain barrier penetration ([2]; brain tissue 0.5 h after single IP injection 2.5 mg/kg) was “capable of crossing the blood-brain barrier”, the viability at 24 h, 5 µmol ([3]; 5 µmol) was 96.6% and the viability at 24 h, 10 µmol ([3]; 10 µmol) was 109%. For the same compound, the viability at 24 h, 20 µmol ([3]; 20 µmol) was 93.1%, the viability at 24 h, 40 µmol ([3]; 40 µmol) was 86.7% and the viability at 24 h, 80 µmol ([3]; 80 µmol) was 22.7%. For the same compound, the viability at 24 h, 160 µmol ([3]; 160 µmol) was 27.2%, the cell viability (293T cell line; 5 µmol) was 106.6% and 109.2% and the cell viability (293T cell line; 10 µmol) was 109.8% and 96.54%. The cell viability (293T cell line; 20 µmol) was 95.56% and 93.46%, the cell viability (293T cell line; 40 µmol) was 86.71% and 78.81% and the cell viability (293T cell line; 80 µmol) was 24% and 23.36%. The cell viability (293T cell line; 160 µmol) was 32.01% and 28.26%, the viability at 24 h, 1.25 µmol ([4]; 1.25 µmol) was 94.5% and the viability at 24 h, 5 µmol ([4]; 5 µmol) was 70.7%. The viability at 24 h, 10 µmol ([4]; 10 µmol) was 51.8%, the viability at 24 h, 20 µmol ([4]; 20 µmol) was 37.1% and the viability at 24 h, 80 µmol ([4]; 80 µmol) was 4.02%. The viability at 24 h, 160 µmol ([4]; 160 µmol) was 4.65%, the viability at 24 h, 2.5 µmol [4] was 90.6% and the “dendritic spine density of hippocampal neurons (normalized to the control group)” value (APP/PS1 transgenic mice; APP SW + intervention, IP 2.5 mg/kg for 1 month, brain slices, individual neurons, 2.5 mg/kg) was 0.7721 and 0.7284 and 0.6276 and 0.7954 and 0.8425 and 0.7853. For the same compound, the “dendritic spine density of hippocampal neurons” value (APP/PS1 transgenic mice; after compound intervention vs AD mice) was “increased”.
